Measurements taken from ChEMBL document CHEMBL1126339, “HMG-CoA reductase inhibitors 4. Tetrazole series: conformational constraints and structural requirements at the hydrophobic domain” (Bioorg Med Chem Lett, 1992).

These molecules were tested against T1, 3-hydroxy-3-methylglutaryl-coenzyme A reductase (Rattus norvegicus, UniProt P51639) (assay: Compound was tested for its inhibitory activity against rat liver microsomal HMG-CoA reductase).
T1 sequence (P51639 whole entry): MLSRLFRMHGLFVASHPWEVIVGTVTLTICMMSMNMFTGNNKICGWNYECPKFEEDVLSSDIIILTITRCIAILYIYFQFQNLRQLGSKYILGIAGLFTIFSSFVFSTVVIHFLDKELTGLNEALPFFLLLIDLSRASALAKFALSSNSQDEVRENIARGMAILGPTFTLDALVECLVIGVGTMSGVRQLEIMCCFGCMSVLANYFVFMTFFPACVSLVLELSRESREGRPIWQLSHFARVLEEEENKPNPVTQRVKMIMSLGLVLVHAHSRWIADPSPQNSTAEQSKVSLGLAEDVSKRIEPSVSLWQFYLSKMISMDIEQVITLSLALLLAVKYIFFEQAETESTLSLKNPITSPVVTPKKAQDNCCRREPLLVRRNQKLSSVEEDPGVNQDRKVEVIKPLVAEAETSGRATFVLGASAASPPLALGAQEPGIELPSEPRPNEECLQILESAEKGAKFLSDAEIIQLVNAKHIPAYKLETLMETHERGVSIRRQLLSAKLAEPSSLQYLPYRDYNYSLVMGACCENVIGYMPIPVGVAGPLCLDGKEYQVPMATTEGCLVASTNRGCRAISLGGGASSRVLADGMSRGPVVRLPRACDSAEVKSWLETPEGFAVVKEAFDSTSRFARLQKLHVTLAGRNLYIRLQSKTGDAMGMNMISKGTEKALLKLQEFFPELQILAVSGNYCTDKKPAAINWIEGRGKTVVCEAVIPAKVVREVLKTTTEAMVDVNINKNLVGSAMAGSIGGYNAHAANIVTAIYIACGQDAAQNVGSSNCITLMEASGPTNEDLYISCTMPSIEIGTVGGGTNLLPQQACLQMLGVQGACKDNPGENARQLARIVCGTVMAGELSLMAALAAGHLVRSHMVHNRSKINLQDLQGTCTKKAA

| Compound | IC50 |
| --- | --- |
| Cn1nnnc1C(/C=C/C(O)CC(O)CC(=O)O)=C1c2ccc(F)cc2-c2cc(F)ccc21 (stereo unspecified) | > 4.1 µM |
| Cn1nnnc1C(/C=C/C(O)CC(O)CC(=O)O)=C(c1ccc(F)cc1)c1ccc(F)cc1 (stereo unspecified) | 0.043 µM |
| Cn1nnnc1C(CCC(O)CC(O)CC(=O)O)Cc1ccc(F)cc1 (stereo unspecified) | > 250 µM |
| Cn1nnnc1C(=C\c1ccc(F)cc1)/C=C/C(O)CC(O)CC(=O)O (stereo unspecified) | 210 µM |
| O=C(O)CC(O)CC(O)/C=C/c1c(-c2ccc(F)cc2)c2ccccc2n2nnnc12 (stereo unspecified) | 4.6 µM |
| Cn1nnnc1C(/C=C/C(O)CC(O)CC(=O)O)=C/c1ccc(F)cc1 (stereo unspecified) | > 250 µM |
